Data: PubChem BioAssay (NCI)
Several values for one entry are separate records, joined by “and”; a condition that tells them apart may be missing. Identical values can stand only once.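 Growth conditions: 96-well plates. Treatment: test compound, 48 hours, 5 concentrations. Analysis: linear interpolation between bracketing concentrations; unreached endpoints set to highest concentration. GI50 = concentration required for 50% inhibition of growth. TGI is the concentration that stops growth completely.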

Key:
Assay in all cases: growth of human tumour cells (NCI), 48 h
DU-145 prostate = test system: DU-145 prostate
LOX IMVI melanoma = test system: LOX IMVI melanoma
MCF7 breast = test system: MCF7 breast
IGROV1 ovarian = test system: IGROV1 ovarian
MDA-MB-435 = test system: MDA-MB-435
HCT-116 colon = test system: HCT-116 colon
OVCAR-8 ovarian = test system: OVCAR-8 ovarian
NCI-H460 lung = test system: NCI-H460 lung
BT-549 breast = test system: BT-549 breast
SK-MEL-2 melanoma = test system: SK-MEL-2 melanoma

Row | Structure (SMILES) | TGI (DU-145 prostate) | TGI (LOX IMVI melanoma) | TGI (MCF7 breast) | TGI (IGROV1 ovarian) | TGI (MDA-MB-435) | TGI (HCT-116 colon) | TGI (OVCAR-8 ovarian) | TGI (NCI-H460 lung) | TGI (BT-549 breast) | TGI (SK-MEL-2 melanoma) | GI50 (BT-549 breast) | GI50 (LOX IMVI melanoma) | GI50 (MCF7 breast) | GI50 (IGROV1 ovarian) | GI50 (DU-145 prostate) | GI50 (MDA-MB-435) | GI50 (HCT-116 colon) | GI50 (OVCAR-8 ovarian) | GI50 (NCI-H460 lung) | GI50 (SK-MEL-2 melanoma)
1 | NC1=NCC(CN2CCCC2)O1 (centres undefined) | > 100 µM | > 100 µM | > 100 µM | > 100 µM | > 100 µM | > 100 µM | > 100 µM | > 100 µM | > 100 µM | > 100 µM | – | – | – | – | – | – | – | – | – | –
2 | CCOP(=O)(OCC)C(C)(CC)NC(=O)C(C(F)(F)F)C(F)(F)F (centres undefined) | > 100 µM | > 100 µM | > 100 µM | > 100 µM | > 100 µM | > 100 µM | > 100 µM | > 100 µM | 99.7 µM and > 100 µM | > 100 µM | 19.3 µM and 3.87 µM | – | – | – | – | – | – | – | – | –
3 | CC(C)C1(O)C(=O)N(c2c(F)c(F)c(F)c(F)c2F)C(=S)N1CCSc1ccccc1 (centres undefined) | 30.9 µM | 30.1 µM | 31.7 µM | 31.2 µM | 32.8 µM | 32.1 µM | 33.8 µM | 38.4 µM | 30.4 µM | 32.5 µM | – | – | – | – | – | – | – | – | – | –
4 | CO[C@H]1C[C@H](O[C@H]2CC[C@]3(C=O)[C@H]4CC[C@]5(C)[C@@H](C6=CC(=O)OC6)CC[C@]5(O)[C@@H]4CC[C@]3(O)C2)O[C@H](C)[C@H]1O | 0.462 µM | 8.31 µM | 13.1 µM | 7.86 µM | 1.47 µM | 0.737 µM | 1.03 µM | 0.176 µM | 0.818 µM | 2.04 µM | – | – | – | – | – | – | – | – | – | –
5 | CCOC(=O)C1(C(F)(F)F)N=C(CC)OC(N2CCOCC2)=N1 (centres undefined) | > 100 µM | > 100 µM | > 100 µM | > 100 µM | > 100 µM | > 100 µM | > 100 µM | > 100 µM | > 100 µM | > 100 µM | – | – | – | – | – | – | – | – | – | –
6 | COc1ccc(CCN2CCc3c(C)c(C#N)c4nc5ccccc5n4c32)cc1OC | > 100 µM | > 100 µM | > 100 µM | > 100 µM | 45 µM | > 100 µM | > 100 µM | > 100 µM | 84.2 µM | 44.7 µM | – | – | – | – | – | – | – | – | – | –
7 | O=[N+]([O-])c1cccnc1-n1cnc2ccccc21 | > 100 µM | > 100 µM | > 100 µM | > 100 µM | > 100 µM | > 100 µM | > 100 µM | > 100 µM | > 100 µM | > 100 µM | – | – | – | – | – | – | – | – | – | –
8 | C=CC1CN2CCC1CC2C(O)c1ccnc2ccccc12 (centres undefined) | > 100 µM | > 100 µM | > 100 µM | > 100 µM | > 100 µM | > 100 µM | > 100 µM | > 100 µM | > 100 µM | > 100 µM | – | > 100 µM | 5.05 µM | > 100 µM | – | – | – | – | – | –
9 | CCN(CC)c1ccc2cc(-c3nc4ccccc4c(=O)[nH]3)c(=N)oc2c1 | > 100 µM | > 100 µM | > 100 µM | > 100 µM | > 100 µM | > 100 µM | > 100 µM | > 100 µM | > 100 µM | > 100 µM | – | – | – | – | – | – | – | – | – | –
10 | CCOC(=O)C1CCCCN1CCc1c[nH]c2ccccc12 (centres undefined) | > 100 µM | > 100 µM | > 100 µM | > 100 µM | > 100 µM | > 100 µM | > 100 µM | > 100 µM | > 100 µM | > 100 µM | – | – | – | – | – | – | – | – | – | –
11 | CN(C)c1ccc(/C=C2\N=C(c3ccccc3)N(c3ccc4c(c3)Sc3cc(N5C(=O)/C(=C/c6ccc(N(C)C)cc6)N=C5c5ccccc5)ccc3N4)C2=O)cc1 | 76.1 µM | 40.9 µM | 32.4 µM | 32 µM | 58 µM | 67.6 µM | 34.4 µM | 62.3 µM | 66.6 µM | 38.3 µM | – | – | – | – | – | – | – | – | – | –
12 | CCOC(=O)c1cn(C)c(=S)n2c1nc1ccccc12 | > 100 µM | > 100 µM | > 100 µM | > 100 µM | > 100 µM | > 100 µM | > 100 µM | > 100 µM | > 100 µM | > 100 µM | – | – | – | – | – | – | – | – | – | –
13 | NS(=O)(=O)c1ccc(NNc2c3ccccc3nc3c(C(=O)Nc4ccc(S(=O)(=O)Nc5ncccn5)cc4)cccc23)cc1 | > 25 µM | > 25 µM | > 25 µM | > 25 µM | > 25 µM | > 25 µM | > 25 µM | > 25 µM | > 25 µM | > 25 µM | – | – | – | – | – | – | – | – | – | –
14 | Cc1ccc(S(=O)(=O)n2cc(C#N)c(C#N)c2)cc1 | > 100 µM | 52.1 µM | 48.2 µM | > 100 µM | 45.6 µM | > 100 µM | > 100 µM | > 100 µM | 45.2 µM | 52 µM | – | – | – | – | – | – | – | – | – | –
15 | COC(=O)c1c(C)nc(C)c(NO)c1-c1ccccc1C(F)(F)F | > 100 µM | > 100 µM | 39.2 µM | 35.6 µM | 37.6 µM | 29.9 µM | 33.2 µM | > 100 µM | 30.8 µM | > 100 µM | – | – | – | – | – | – | – | – | – | –
16 | Nc1ncnc2c1ncn2Cc1cccc(CCl)c1 | 27.1 µM | 71.7 µM | 30.3 µM | 31.8 µM | 44.6 µM | 24.6 µM | 42.9 µM | 29.9 µM | 25.8 µM | 31.9 µM | – | – | – | – | – | – | – | – | – | –
17 | c1ccc(-c2nnn(CCN3CCCCC3)n2)cc1 | > 100 µM | > 100 µM | > 100 µM | > 100 µM | > 100 µM | > 100 µM | > 100 µM | > 100 µM | > 100 µM | > 100 µM | – | – | – | – | – | – | – | – | – | –
18 | CCOP(=O)(OCC)/C(C#N)=C/c1cccn1Cc1ccccc1 | > 100 µM | 53 µM | > 100 µM | > 100 µM | 42 µM | 39.7 µM | > 100 µM | > 100 µM | 74.7 µM | 47.8 µM | – | – | – | – | – | – | – | – | – | –
19 | O=C(Nc1cccc(-n2cc(-c3ccncc3)c(-c3ccc(O)c(Cl)c3)n2)c1)c1cccc(C(F)(F)F)c1 | > 100 µM | > 100 µM | > 100 µM | > 100 µM | > 100 µM | > 100 µM | > 100 µM | > 100 µM | > 100 µM | 38.1 µM | 3.34 µM | 2.35 µM | 2.97 µM | 9.88 µM | 6.52 µM | 3.57 µM | 3.24 µM | 3.89 µM | 3.42 µM | 4.54 µM
20 | CC(C)OC1OC(CO)C(O)CC1n1cc(F)c(=O)[nH]c1=O (centres undefined) | > 100 µM | > 100 µM | > 100 µM | > 100 µM | > 100 µM | > 100 µM | > 100 µM | > 100 µM | > 100 µM | > 100 µM | – | – | – | – | – | – | – | – | – | –
21 | CN(C)C(=S)Oc1ccc2ccc(=O)oc2c1 | > 100 µM | > 100 µM | > 100 µM | > 100 µM | > 100 µM | > 100 µM | > 100 µM | > 100 µM | > 100 µM | > 100 µM | – | – | – | – | – | – | – | – | – | –
22 | NCCC1CN(C(=O)OCc2ccccc2)c2ccccc21 (centres undefined) | 48.9 µM | 17.1 µM | 22.9 µM | 33 µM | 30 µM | 15.6 µM | 20.3 µM | 43.4 µM | 40.4 µM | 36.3 µM | – | – | – | – | – | – | – | – | – | –
23 | C(/Cc1ccc2c(c1)OCO2)=N\NC1=NCCCN1 | > 100 µM | > 100 µM | > 100 µM | > 100 µM | > 100 µM | > 100 µM | > 100 µM | > 100 µM | > 100 µM | > 100 µM | – | – | – | – | – | – | – | – | – | –
24 | NC(=O)Cc1nc2c(=O)[nH]cnc2n1C1OC(CO)C(O)C1O (centres undefined) | > 100 µM | > 100 µM | > 100 µM | > 100 µM | > 100 µM | > 100 µM | > 100 µM | > 100 µM | > 100 µM | > 100 µM | – | – | – | – | – | – | – | – | – | –
25 | COc1ccc(-c2cc(C(O)C3CCCCN3)c3ccccc3n2)cc1 (centres undefined) | 20.5 µM | 16 µM | 14.2 µM | 22.4 µM | 15.1 µM | 21.5 µM | 29.5 µM | 10.4 µM | 32.2 µM | 18.5 µM | – | – | – | – | – | – | – | – | – | –
26 | Cc1ccc(-c2n[nH]c(=O)n2/N=C\c2ccccc2)cc1 | > 100 µM | > 100 µM | > 100 µM | > 100 µM | > 100 µM | > 100 µM | > 100 µM | > 100 µM | > 73.8 µM | 99.8 µM | – | – | – | – | – | – | – | – | – | –
